Experimental data: US20100056524A1, “Compound” (priority 2008, published 2010)
Where a name gives a salt, the structure may show the parent alone. Read-outs that look alike come from different tables or passages of the source.

Key:
IKKe = target: T1, IKKe (Homo sapiens, UniProt Q14164); test: IKKe protein kinase assay; format: biochemical; conditions: for remaining activity at 10 µM: 10 μM compound; for residual kinase activity IKKe: 1 μm compound; for remaining activity at 1 µM: 1 μM compound
T1 construct: All protein kinases were of human origin and encoded full length proteins, unless indicated otherwise; His6; made in house; host or cells: insect Sf21 cells
T1 sequence (Q14164 1-716): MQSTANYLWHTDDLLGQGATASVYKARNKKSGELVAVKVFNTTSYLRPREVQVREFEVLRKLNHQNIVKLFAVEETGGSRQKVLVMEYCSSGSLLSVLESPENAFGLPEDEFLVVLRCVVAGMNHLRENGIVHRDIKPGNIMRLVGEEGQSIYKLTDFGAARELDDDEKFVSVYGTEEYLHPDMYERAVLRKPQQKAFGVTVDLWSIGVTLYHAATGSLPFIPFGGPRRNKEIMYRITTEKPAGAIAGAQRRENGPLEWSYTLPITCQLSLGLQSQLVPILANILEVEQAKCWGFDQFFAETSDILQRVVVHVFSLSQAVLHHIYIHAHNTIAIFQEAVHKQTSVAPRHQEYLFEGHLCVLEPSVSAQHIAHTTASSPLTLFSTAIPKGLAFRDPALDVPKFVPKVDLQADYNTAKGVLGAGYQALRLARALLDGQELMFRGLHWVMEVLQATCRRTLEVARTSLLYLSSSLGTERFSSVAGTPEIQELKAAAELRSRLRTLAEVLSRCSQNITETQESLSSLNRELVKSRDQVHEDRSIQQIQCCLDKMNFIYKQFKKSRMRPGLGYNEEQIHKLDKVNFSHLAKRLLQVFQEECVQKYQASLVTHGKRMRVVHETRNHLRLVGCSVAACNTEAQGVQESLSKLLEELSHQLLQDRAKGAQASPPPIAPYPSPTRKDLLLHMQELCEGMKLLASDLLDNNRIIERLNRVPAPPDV
From the text: (§1) All protein kinases were of human origin and encoded full length proteins, unless indicated otherwise. They were either expressed as glutathione S-transferase (GST) fusion proteins in Escherichia Coli or as hexahistidine (His6)-tagged proteins in insect Sf21 cells. GST fusion proteins were purified by affinity chromatography on glutathione-Sepharose, and His6-tagged proteins on nickel/nitriloacetate-agarose. The procedures for expressing some of the protein kinases used herein have been detailed previously.^8,9 The following sections outline the DNA vectors synthesised and the procedures used to express and purifying protein kinases that have not been reported previously.
The following kinases were expressed in Sf21 cells: Aurora B and Aurora C, extra-cellular signal-regulated kinase 8 (ERK8), microtubule affinity regulating kinase 3 (MARK3), protein kinase Bα[118-480][S473D], protein kinase Bβ (PKBβ[120-481][S474D], 3-phosphoinositide-dependent protein kinase-1 [52-556]
(§2) All assays (25.5 μl) were carried out at room temperature (21° C.) and were linear with respect to time and enzyme concentration under the conditions used. Assays were performed for 30 min using Multidrop Micro reagent dispensers (Thermo Electron Corporation, Waltham, Mass. 02454, USA) in a 96-well format. The concentration of magnesium acetate in the assays was 10 mM and the [γ-33P] ATP (800 cpm/pmol) was used at 5, 20 or 50 μM as indicated, in order to be at or below the Km for ATP for each enzyme. Protein kinases assayed at 5 μM ATP were: —ERK1, ERK8, PKBα, MARK3, Aurora C. Protein kinases assayed at 20 μM ATP were: —JNK1, PDK1, CHK1, CHK2, CDK2 and Aurora B. Protein kinases assayed at 50 μM ATP were: —MNK2, IKKepsilon and TBK1.
(§3) The assays were initiated with MgATP, stopped by addition of 5 μl of 0.5 M orthophosphoric acid and spotted on to P81 filterplates using a unifilter harvester (PerkinElmer, Boston, Mass. 02118, USA). The IC50 values of inhibitors were determined after carrying out assays at 10 different concentrations of each compound.
(§4) Unless stated otherwise, enzymes were diluted in 50 mM Tris/HCl pH 7.5, 0.1 mM EGTA, 1 mg/ml BSA, 0.1% (v/v) 2-mercaptoethanol and assayed in 50 mM Tris/HCl pH 7.5, 0.1 mM EGTA, 0.1% (v/v) 2-mercaptoethanol.

AMPK = AMPK protein kinase assay; format: biochemical, human; conditions: for residual kinase activity: AMPK
From the text: as §1, §2, §3, §4

PHK = PHK protein kinase assay; format: biochemical, human; conditions: for residual kinase activity: PHK
From the text: as §1, §2, §3, §4

SGK1 = target: T2, SGK1 (Homo sapiens, UniProt O00141, S422D); test: SGK1 protein kinase assay; format: biochemical; conditions: for remaining activity at 10 µM: 10 μM compound; for residual kinase activity SGK1: 1 μm compound; for remaining activity at 1 µM: 1 μM compound
T2 construct: All protein kinases were of human origin and encoded full length proteins, unless indicated otherwise; made in house
T2 sequence (O00141 60-431 S422D limits assumed): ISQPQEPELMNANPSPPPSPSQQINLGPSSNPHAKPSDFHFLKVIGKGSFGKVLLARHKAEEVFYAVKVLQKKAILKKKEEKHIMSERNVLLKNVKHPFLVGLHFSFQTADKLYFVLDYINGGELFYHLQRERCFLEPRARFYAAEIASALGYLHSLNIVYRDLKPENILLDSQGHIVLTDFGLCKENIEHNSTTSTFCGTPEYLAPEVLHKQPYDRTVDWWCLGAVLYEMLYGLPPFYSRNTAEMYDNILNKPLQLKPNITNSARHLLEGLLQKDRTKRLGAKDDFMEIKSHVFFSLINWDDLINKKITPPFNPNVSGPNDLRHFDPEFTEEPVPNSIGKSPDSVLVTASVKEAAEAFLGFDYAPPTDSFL
From the text: as §1, §2, §3, §4

PLK1 (Okadaic Acid) = target: T3, PLK1 (Okadaic Acid) (Homo sapiens, UniProt P53350); test: PLK1 (Okadaic Acid) protein kinase assay; format: biochemical; conditions: for remaining activity at 10 µM: 10 μM compound; for residual kinase activity PLK1 (Okadaic Acid): 1 μm compound; for remaining activity at 1 µM: 1 μM compound
T3 construct: All protein kinases were of human origin and encoded full length proteins, unless indicated otherwise; made in house; host or cells: probably Sf21 insect cells treated with okadaic acid (inferred from the row name; the text says this only of Aurora B and C)
From the text: as §1, §2, §3, §4

[1] = read-out: residual kinase activity IKKe
[2] = read-out: residual kinase activity SGK1
[3] = read-out: residual kinase activity PLK1 (Okadaic Acid)
[4] = IKKe, 50 μM ATP, read-out: residual kinase activity
[5] = SGK1, read-out: residual kinase activity
[6] = PLK1 (Okadaic Acid), read-out: residual kinase activity

T3 sequence (P53350 whole entry): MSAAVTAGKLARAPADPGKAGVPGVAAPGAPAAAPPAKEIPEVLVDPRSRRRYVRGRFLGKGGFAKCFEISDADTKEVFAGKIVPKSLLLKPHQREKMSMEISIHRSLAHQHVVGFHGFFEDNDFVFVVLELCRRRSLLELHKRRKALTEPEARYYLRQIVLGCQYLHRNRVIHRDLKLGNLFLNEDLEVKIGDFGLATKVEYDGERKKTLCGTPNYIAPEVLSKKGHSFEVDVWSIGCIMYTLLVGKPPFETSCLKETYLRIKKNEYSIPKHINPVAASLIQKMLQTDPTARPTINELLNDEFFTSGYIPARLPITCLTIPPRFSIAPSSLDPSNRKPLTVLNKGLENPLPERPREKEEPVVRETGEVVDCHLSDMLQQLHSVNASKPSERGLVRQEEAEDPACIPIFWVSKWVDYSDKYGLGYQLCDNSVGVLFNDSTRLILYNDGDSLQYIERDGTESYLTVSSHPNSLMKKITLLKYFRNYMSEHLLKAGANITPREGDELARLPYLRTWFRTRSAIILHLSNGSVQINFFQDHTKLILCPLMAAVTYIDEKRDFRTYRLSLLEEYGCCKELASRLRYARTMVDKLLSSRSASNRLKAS

SMILES	remaining activity at 10 µM (IKKe; [1]) [%]	residual kinase activity IKKe (IKKe) [%]	residual kinase activity AMPK (AMPK; 10 μM compound) [%]	residual kinase activity AMPK (AMPK; 1 μm compound) [%]	residual kinase activity PHK (PHK; 10 μM compound) [%]	residual kinase activity PHK (PHK; 1 μm compound) [%]	remaining activity at 10 µM (SGK1; [2]) [%]	residual kinase activity SGK1 (SGK1) [%]	remaining activity at 10 µM (PLK1 (Okadaic Acid); [3]) [%]	residual kinase activity PLK1 (Okadaic Acid) (PLK1 (Okadaic Acid)) [%]	remaining activity at 1 µM (IKKe; [4]) [%]	remaining activity at 10 µM (IKKe; [4]) [%]	residual kinase activity (AMPK; 1 μM compound) [%]	residual kinase activity (AMPK; 10 μM compound) [%]	residual kinase activity (PHK; 1 μM compound) [%]	residual kinase activity (PHK; 10 μM compound) [%]	remaining activity at 1 µM (SGK1; [5]) [%]	remaining activity at 10 µM (SGK1; [5]) [%]	remaining activity at 1 µM (PLK1 (Okadaic Acid); [6]) [%]	remaining activity at 10 µM (PLK1 (Okadaic Acid); [6]) [%]
O=C(NCCCNc1nc(Nc2cccc(F)c2)ncc1Br)C1CCC1 [Compound A, cyclobutanecarboxylic acid {3-[5-bromo-2-(3-fluoro-phenylamino)-pyrimidin-4-ylamino]-propyl}-amide, reference compound]	3	13	2	4	0	7	18	59	39	95	–	–	–	–	–	–	–	–	–	–
O=C(NCCCNc1nc(Nc2cccc(F)c2)ncc1C1CC1)C1CCC1 [Example 23, Cyclobutanecarboxylic acid {3-[5-cyclopropyl-2-(3-fluoro-phenylamino)-pyrimidin-4-ylamino]-propyl}-amide]	5	15	8	45	3	28	64	100	46	66	15	5	45	8	28	3	100	64	66	46
O=C(NCCCNc1nc(Nc2cccc(N3CCCC3=O)c2)ncc1C1CC1)c1cccs1 [Example 47, Thiophene-2-carboxylic acid (3-{5-cyclopropyl-2-[3-(2-oxo-pyrrolidin-1-yl)-phenylamino]-pyrimidin-4-ylamino}-propyl)-amide. Hydrochloride salt]	–	–	–	–	–	–	–	–	–	–	14	6	77	30	78	24	71	59	90	64
O=C(NCCCNc1nc(Nc2cccnc2)ncc1C1CC1)c1cccs1 [Example 50, Thiophene-2-carboxylic acid {3-[5-cyclopropyl-2-(pyridin-3-ylamino)-pyrimidin-4-ylamino]-propyl}-amide]	–	–	–	–	–	–	–	–	–	–	28	7	76	38	64	15	86	57	82	60
